# In ChEMBL document CHEMBL3885861, “Open TG-GATES”:
# Species: Rattus norvegicus
# Assay: Open TG-GATES - Regimen: Daily Repeat
# Format: toxicity, organism-based, Sprague-Dawley
# Design: regimen Daily Repeat, gender Male, age 6 weeks
# Details: in vivo, po, 60 mg/kg, route gavage, dose level High; for APTT / Bas / Eos / Fbg / Hb / Ht / Lym / MCH / MCHC / MCV / Mono / Neu / PT / Plat / RBC / Ret / WBC: tissue Blood; for LIVER: tissue Liver; for A/G / ALP / ALT / AST / BUN / CRE / Ca / Cl / DBIL / GLC / IP / K / LDH / Na / PL / RALB / TBIL / TC / TG / TP / gamma-GTP: tissue Plasma
smiles,measurement,setting,value
"O=[N+]([O-])c1ccc(O)c([N+](=O)[O-])c1 [2,4-DINITROPHENOL]",TERMINAL_BW,"72 h, time 3 day",245.9 g
same,APTT,"72 h, time 3 day",15.9 s
same,Bas,"72 h, time 3 day",0%
same,Eos,"72 h, time 3 day",1%
same,Fbg,"72 h, time 3 day",275.4 mg/dL
same,Hb,"72 h, time 3 day",13.3 g/dL
same,Ht,"72 h, time 3 day",39.2%
same,Lym,"72 h, time 3 day",74%
same,MCH,"72 h, time 3 day",22 pg
same,MCHC,"72 h, time 3 day",33.9%
same,MCV,"72 h, time 3 day",64.9 fL
same,Mono,"72 h, time 3 day",7%
same,Neu,"72 h, time 3 day",18.4%
same,PT,"72 h, time 3 day",11.7 s
same,Plat,"72 h, time 3 day",139 x10_4/uL
same,RBC,"72 h, time 3 day",604.8 x10_4/ul
same,Ret,"72 h, time 3 day",9.7%
same,WBC,"72 h, time 3 day",124 x10_2/uL
same,LIVER,"72 h, time 3 day",12.8 g
same,A/G,"72 h, time 3 day",2.2
same,ALP,"72 h, time 3 day",1454.2 IU/L
same,ALT,"72 h, time 3 day",31.8 IU/L
same,AST,"72 h, time 3 day",66.2 IU/L
same,BUN,"72 h, time 3 day",17.8 mg/dL
same,CRE,"72 h, time 3 day",0.4 mg/dL
same,Ca,"72 h, time 3 day",11.4 mg/dL
same,Cl,"72 h, time 3 day",104.6 meq/L
same,DBIL,"72 h, time 3 day",0.014 mg/dL
same,GLC,"72 h, time 3 day",169.2 mg/dL
same,IP,"72 h, time 3 day",6.6 mg/dL
same,K,"72 h, time 3 day",5 meq/L
same,LDH,"72 h, time 3 day",98.2 IU/L
same,Na,"72 h, time 3 day",137.8 meq/L
same,PL,"72 h, time 3 day",155.2 mg/dL
same,RALB,"72 h, time 3 day",3.8 g/dL
same,TBIL,"72 h, time 3 day",0.02 mg/dL
same,TC,"72 h, time 3 day",82 mg/dL
same,TG,"72 h, time 3 day",125 mg/dL
same,TP,"72 h, time 3 day",5.6 g/dL
same,gamma-GTP,"72 h, time 3 day",0.2 IU/L
same,TERMINAL_BW,"[…], time 7 day",262.8 g
same,TERMINAL_BW,"[…], time 14 day",327.9 g
same,TERMINAL_BW,"[…], time 28 day",396.2 g
same,APTT,"[…], time 7 day",16.6 s
same,Bas,"[…], time 7 day",0%
same,Eos,"[…], time 7 day",1.4%
same,Fbg,"[…], time 7 day",263.8 mg/dL
same,Hb,"[…], time 7 day",14.2 g/dL
same,Ht,"[…], time 7 day",41.9%
same,Lym,"[…], time 7 day",78.4%
same,MCH,"[…], time 7 day",21.5 pg
same,MCHC,"[…], time 7 day",33.9%
same,MCV,"[…], time 7 day",63.4 fL
same,Mono,"[…], time 7 day",6.4%
same,Neu,"[…], time 7 day",14.6%
same,PT,"[…], time 7 day",11.9 s
same,Plat,"[…], time 7 day",128.6 x10_4/uL
same,RBC,"[…], time 7 day",662.2 x10_4/ul
same,Ret,"[…], time 7 day",6.1%
same,WBC,"[…], time 7 day",126.8 x10_2/uL
same,APTT,"[…], time 14 day",16.3 s
same,Bas,"[…], time 14 day",0%
same,Eos,"[…], time 14 day",0.8%
same,Fbg,"[…], time 14 day",263.8 mg/dL
same,Hb,"[…], time 14 day",14.3 g/dL
same,Ht,"[…], time 14 day",42.2%
same,Lym,"[…], time 14 day",74.8%
same,MCH,"[…], time 14 day",21.6 pg
same,MCHC,"[…], time 14 day",33.9%
same,MCV,"[…], time 14 day",63.5 fL
same,Mono,"[…], time 14 day",10.4%
same,Neu,"[…], time 14 day",14.2%
same,PT,"[…], time 14 day",12.2 s
same,Plat,"[…], time 14 day",124 x10_4/uL
same,RBC,"[…], time 14 day",665.2 x10_4/ul
same,Ret,"[…], time 14 day",4.2%
same,WBC,"[…], time 14 day",114.6 x10_2/uL
same,APTT,"[…], time 28 day",16.4 s
same,Bas,"[…], time 28 day",0%
same,Eos,"[…], time 28 day",1%
same,Fbg,"[…], time 28 day",294.4 mg/dL
same,Hb,"[…], time 28 day",15.6 g/dL
same,Ht,"[…], time 28 day",46.4%
same,Lym,"[…], time 28 day",73.4%
same,MCH,"[…], time 28 day",20.5 pg
same,MCHC,"[…], time 28 day",33.6%
same,MCV,"[…], time 28 day",60.9 fL
same,Mono,"[…], time 28 day",6.6%
same,Neu,"[…], time 28 day",18.8%
same,PT,"[…], time 28 day",12 s
same,Plat,"[…], time 28 day",105.6 x10_4/uL
same,RBC,"[…], time 28 day",763.2 x10_4/ul
same,Ret,"[…], time 28 day",2.9%
same,WBC,"[…], time 28 day",117.4 x10_2/uL
same,LIVER,"[…], time 7 day",13.7 g
same,LIVER,"[…], time 14 day",17.8 g
same,LIVER,"[…], time 28 day",21.6 g
same,A/G,"[…], time 7 day",2.3
same,ALP,"[…], time 7 day",1317.4 IU/L
same,ALT,"[…], time 7 day",39.4 IU/L
same,AST,"[…], time 7 day",72 IU/L
same,BUN,"[…], time 7 day",17 mg/dL
same,CRE,"[…], time 7 day",0.3 mg/dL
same,Ca,"[…], time 7 day",11.5 mg/dL
same,Cl,"[…], time 7 day",104.2 meq/L
same,DBIL,"[…], time 7 day",0.014 mg/dL
same,GLC,"[…], time 7 day",167.8 mg/dL
same,IP,"[…], time 7 day",7.2 mg/dL
same,K,"[…], time 7 day",4.8 meq/L
same,LDH,"[…], time 7 day",116.8 IU/L
same,Na,"[…], time 7 day",140.2 meq/L
same,PL,"[…], time 7 day",150.4 mg/dL
same,RALB,"[…], time 7 day",4 g/dL
same,TBIL,"[…], time 7 day",0.016 mg/dL
same,TC,"[…], time 7 day",77.6 mg/dL
same,TG,"[…], time 7 day",115 mg/dL
same,TP,"[…], time 7 day",5.7 g/dL
same,gamma-GTP,"[…], time 7 day",0.8 IU/L
same,A/G,"[…], time 14 day",2.2
same,ALP,"[…], time 14 day",1140.6 IU/L
same,ALT,"[…], time 14 day",38 IU/L
same,AST,"[…], time 14 day",79.2 IU/L
same,BUN,"[…], time 14 day",18.6 mg/dL
same,CRE,"[…], time 14 day",0.4 mg/dL
same,Ca,"[…], time 14 day",11.8 mg/dL
same,Cl,"[…], time 14 day",104.6 meq/L
same,DBIL,"[…], time 14 day",0.014 mg/dL
same,GLC,"[…], time 14 day",167.8 mg/dL
same,IP,"[…], time 14 day",6 mg/dL
same,K,"[…], time 14 day",4.1 meq/L
same,LDH,"[…], time 14 day",134.2 IU/L
same,Na,"[…], time 14 day",138 meq/L
same,PL,"[…], time 14 day",151.2 mg/dL
same,RALB,"[…], time 14 day",4.1 g/dL
same,TBIL,"[…], time 14 day",0.02 mg/dL
same,TC,"[…], time 14 day",67.4 mg/dL
same,TG,"[…], time 14 day",208.6 mg/dL
same,TP,"[…], time 14 day",6 g/dL
same,gamma-GTP,"[…], time 14 day",0 IU/L
same,A/G,"[…], time 28 day",1.9
same,ALP,"[…], time 28 day",925 IU/L
same,ALT,"[…], time 28 day",45.6 IU/L
same,AST,"[…], time 28 day",93.8 IU/L
same,BUN,"[…], time 28 day",20.8 mg/dL
same,CRE,"[…], time 28 day",0.5 mg/dL
same,Ca,"[…], time 28 day",11.4 mg/dL
same,Cl,"[…], time 28 day",105 meq/L
same,DBIL,"[…], time 28 day",0.018 mg/dL
same,GLC,"[…], time 28 day",167.6 mg/dL
same,IP,"[…], time 28 day",5 mg/dL
same,K,"[…], time 28 day",4.2 meq/L
same,LDH,"[…], time 28 day",160 IU/L
same,Na,"[…], time 28 day",140.2 meq/L
same,PL,"[…], time 28 day",144.4 mg/dL
same,RALB,"[…], time 28 day",4.1 g/dL
same,TBIL,"[…], time 28 day",0.026 mg/dL
same,TC,"[…], time 28 day",69 mg/dL
same,TG,"[…], time 28 day",177.8 mg/dL
same,TP,"[…], time 28 day",6.3 g/dL
same,gamma-GTP,"[…], time 28 day",0.6 IU/L
